The target of assay [1] is HMG-CoA Reductase (Homo sapiens (Human), UniProt P04035). The assay can be described thus: HMG-CoA Reductase assay kit (Sigma-Aldrich CS1090), spectrophotometric NADPH absorbance at 340 nm. The format is biochemical. Particulars: inhibitor varied 0 nM to 50 nM, NADPH and HMG-CoA 200 μM. On the procedure: All assays were carried out in a reaction buffer containing […] KxPO4 at pH 7.2, 1 mM EDTA, 500 mM KCl and 1 mg/ml BSA. The concentrations of NADPH and HMG-CoA were both 200 μM. […] Absorbance readings were then taken every 20 seconds for 600 seconds.
Preparation of the Assay Solution
Add a buffer to all samples. • b. […] Add the reconstituted NADPH to all samples. • d. Add Substrate Solution (HMG-CoA) to all samples. • e. […] Mix the samples thoroughly.
3. The kinetics programme was started immediately.
V=volume of enzyme used in the assay (ml)
0.6=enzyme concentration in mg-protein (mgPO/ml (0.55-0.65 mgP/ml)
LP=light path in cm (1 for cuvettes).

Assay [2] deals with rat plasma triglyceride levels. The assay can be described thus: Rat plasma triglyceride levels after 3 or 5 days BID oral treatment. The format is in vivo. Particulars: male SD rats, 25 mg/kg po BID for 3 or 5 days, plasma 16 hours after last dose.
Protocol: 112 male SD rats (Harlan) were housed in groups of 6 under a 12 h light dark cycle (lights on 07.00 h) with free access to food (normal laboratory chow) and water. Animals between 148-183 g were allocated to treatment groups of 8 balanced by body weight and treatments were balanced across cages.
Four rosuvastatin analogues were made up in 10% PEG300/10% cremophor/80% methyl cellulose (0.5%) (vehicle 1) to make a 5 mg/mL solution.
Rosuvastatin was formulated in 0.5% Tween in 0.5% methyl cellulose (vehicle 2) at 5 mg/kg as a suspension.
Rats were orally dosed with vehicle 1, one of the four rosuvastatin analogues in vehicle 1 (25 mg/kg), vehicle 2 or rosuvastatin in vehicle 2 (25 mg/kg po), BID for 3 or 5 days.
Sixteen hours after the last treatment, terminal plasma samples were taken, stored at −20° C., and transported on dry ice for analysis of triglyceride levels.
Data for each time-point were analysed by 1-way ANOVA and post-hoc Dunnett's test.

By IC50 is commonly meant the midpoint of a concentration-inhibition curve. A higher IC50 goes with weaker potency.

HMG-CoA Reductase, sequence (P04035 340-888): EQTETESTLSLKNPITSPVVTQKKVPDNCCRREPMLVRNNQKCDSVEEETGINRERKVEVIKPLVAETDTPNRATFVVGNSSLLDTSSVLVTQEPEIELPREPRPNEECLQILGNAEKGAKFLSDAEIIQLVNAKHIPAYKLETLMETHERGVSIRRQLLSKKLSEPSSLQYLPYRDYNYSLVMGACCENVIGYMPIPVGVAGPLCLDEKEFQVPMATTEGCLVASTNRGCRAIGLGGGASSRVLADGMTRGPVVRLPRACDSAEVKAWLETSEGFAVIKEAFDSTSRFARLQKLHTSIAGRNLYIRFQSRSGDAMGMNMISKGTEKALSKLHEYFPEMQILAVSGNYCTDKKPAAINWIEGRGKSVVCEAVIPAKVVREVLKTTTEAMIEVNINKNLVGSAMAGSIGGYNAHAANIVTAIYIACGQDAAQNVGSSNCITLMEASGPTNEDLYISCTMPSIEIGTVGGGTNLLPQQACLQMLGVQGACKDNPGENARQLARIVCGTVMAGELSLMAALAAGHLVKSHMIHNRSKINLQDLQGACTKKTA

On to `COC1C[C@H](OC(=O)c2cccnc2)C[C@@H](/C=C/c2c(-c3ccc(F)cc3)nc(N(C)S(C)(=O)=O)nc2C(C)C)O1` (some centres unmarked), for which the IC50 in assay [1] (rosuvastatin compounds) is less than 1 nM.

The compound `CC(C)c1nc(N(C)S(C)(=O)=O)nc(-c2ccc(F)cc2)c1/C=C/[C@@H]1C[C@@H](OCc2ccccc2)CC(OCC(Cl)(Cl)Cl)O1` (some centres unmarked) returned an IC50 in assay [1] (rosuvastatin compounds) of 2 nM.

For `CC(C)c1nc(N(C)S(C)(=O)=O)nc(-c2ccc(F)cc2)c1/C=C/[C@@H]1C[C@@H](O)CC(Oc2c(F)cc(F)cc2F)O1` (some centres unmarked), in assay [1] (rosuvastatin compounds), the IC50 was found to be 1 nM. Compared with the last compound, the IC50 is about 2-fold lower.

In turn, `COc1ccc(OC2C[C@H](O)C[C@@H](/C=C/c3c(-c4ccc(F)cc4)nc(N(C)S(C)(=O)=O)nc3C(C)C)O2)c(OC)c1` (some centres unmarked) had an IC50 in assay [1] (rosuvastatin compounds) of 2 nM. Compared with the last compound, the IC50 is about 2-fold higher.

In turn, `CC(C)c1nc(N(C)S(C)(=O)=O)nc(-c2ccc(F)cc2)c1/C=C/[C@@H]1C[C@@H](O)CC(OCC(Cl)(Cl)Cl)O1` (some centres unmarked) returned an IC50 in assay [1] (rosuvastatin compounds) of 2 nM.

Take `CCCOC1C[C@H](O)C[C@@H](/C=C/c2c(-c3ccc(F)cc3)nc(N(C)S(C)(=O)=O)nc2C(C)C)O1` (some centres unmarked): in assay [1] (rosuvastatin compounds), the IC50 worked out at 10 nM. This IC50 is about 5-fold higher than that of the compound before.

As to `COC1C[C@H](OC(=O)c2cccnc2)C[C@@H](CCn2c(-c3ccc(F)cc3)c(-c3ccccc3)c(C(=O)Nc3ccccc3)c2C(C)C)O1` (some centres unmarked), the IC50 in assay [1] (atorvastatin compounds) is less than 1 nM.

In turn, `CCCOC1C[C@H](O)C[C@@H](CCn2c(-c3ccc(F)cc3)c(-c3ccccc3)c(C(=O)Nc3ccccc3)c2C(C)C)O1` (some centres unmarked) registered a 50% inhibitory concentration (IC50) in assay [1] (atorvastatin compounds) of less than 1 nM.

Regarding `CC(C)c1c(C(=O)Nc2ccccc2)c(-c2ccccc2)c(-c2ccc(F)cc2)n1CC[C@@H]1C[C@@H](O)CC(OC2CCCCC2)O1` (some centres unmarked), the IC50 in assay [1] (atorvastatin compounds) is less than 1 nM.

Take `COc1ccc(OC2C[C@H](O)C[C@@H](CCn3c(-c4ccc(F)cc4)c(-c4ccccc4)c(C(=O)Nc4ccccc4)c3C(C)C)O2)c(OC)c1` (some centres unmarked): the IC50 in assay [1] (atorvastatin compounds) is less than 1 nM.

With `CC(C)c1nc(N(C)S(C)(=O)=O)nc(-c2ccc(F)cc2)c1C=CC(O)CC(O)CC(=O)O` (centres unmarked) [rosuvastatin, 7-[4-(4-fluorophenyl)-6-(1-methylethyl)-2-(methyl-methylsulfonyl-amino)-pyrimidin-5-yl]-3,5-dihydroxy-hept-6-enoic acid], the “effect on plasma triglycerides” value in assay [2] is “marked reduction in plasma triglycerides”.

The values above are taken from patent US9006282B2 (Redx Pharma Limited, priority 2009, dated 2015).
